Key:
[1] = molecular target: T1, p110α Type Ia human PI3K (Homo sapiens, UniProt P42336); assay: In vitro PI3K enzyme assay (AlphaScreen), Test (a); format: biochemical; conditions: read-out: IC50 versus p110α Type Ia human PI3K
T1 construct: full length DNA of each of the p110α, p110β and p110δ Type Ia human PI3K p110 isoforms; 6-His; made in house; Grp1 PH domain in E. coli
Description: The assay used AlphaScreen technology (Gray et al., Analytical Biochemistry, 2003, 313: 234-245) to determine the ability of test compounds to inhibit phosphorylation by recombinant Type I PI3K enzymes of the lipid PI(4,5)P2.
DNA fragments encoding human PI3K catalytic and regulatory subunits were isolated from cDNA libraries using standard molecular biology and PCR cloning techniques. The selected DNA fragments were used to generate baculovirus expression vectors. In particular, full length DNA of each of the p110α, p110β and p110δ Type Ia human PI3K p110 isoforms (EMBL Accession Nos. HSU79143, S67334, Y10055 for p110α, p110β and p110δ respectively) were sub-cloned into a pDEST10 vector (Invitrogen Limited, Fountain Drive, Paisley, UK). The vector is a Gateway-adapted version of Fastbac 1 containing a 6-His epitope tag. […]
Biotinylated-DiC8-PI(3,4,5)P3 (50 nM; Cell Signals Inc., Catalogue No. 107), recombinant purified GST-Grp1 PH protein (2.5 nM) and AlphaScreen Anti-GST donor and acceptor beads (100 ng; Packard Bioscience Limited, Station Road, Pangbourne, Berkshire, UK, Catalogue No. 6760603M) were added and the assay plates were left for about 5 to 20 hours at room temperature in the dark. The resultant signals arising from laser light excitation at 680 nm were read using a Packard AlphaQuest instrument. […]

[2] = tested on: phosphorylation of Serine 473 in Akt; assay: In vitro phospho-Ser473 Akt assay in MDA-MB-468 cells, Test (c); format: cell-based; conditions: Homo sapiens, read-out: IC50, inhibition of phosphorylation of Serine 473 in Akt
Procedure: This assay determines the ability of test compounds to inhibit phosphorylation of Serine 473 in Akt as assessed using Acumen Explorer technology (TTP LabTech Limited, Royston, Herts, SG8 6EE, UK), a plate reader that can be used to rapidly quantitate features of images generated by laser-scanning.
A MDA-MB-468 human breast adenocarcinoma cell line (LGC Promochem, Teddington, Middlesex, UK, Catalogue No. HTB-132) was routinely maintained at 37° C. with 5% CO2 up to a confluency of 70-90% in DMEM containing 10% FCS and 1% L-glutamine.
For the assay, the cells were detached from the culture flask using ‘Accutase’ (Innovative Cell Technologies Inc., San Diego, Calif., USA; Catalogue No. AT104) using standard tissue culture methods and resuspended in media to give 5.5×10^4 cells per ml. Aliquots (90 μl) were seeded into each of the inner 60 wells of a black ‘Costar’ 96-well plate (Corning Inc., NY, USA; Catalogue No. 3904) to give a density of ˜5000 cells per well. Aliquots (90 μl) of culture media were placed in the outer wells to prevent edge effects. [An alternative cell handling procedure involved the maintenance of the cells in a ‘SelecT’ robotic device (The Automation Partnership, Royston, Herts SG8 5WY, UK). Cells were resuspended in media to give 5×10^4 cells per ml. Aliquots (100 μl) were seeded into the wells of a black ‘Costar’ 96-well plate.] […]

T1 sequence (P42336 whole entry, the tested form may be a part, canonical isoform): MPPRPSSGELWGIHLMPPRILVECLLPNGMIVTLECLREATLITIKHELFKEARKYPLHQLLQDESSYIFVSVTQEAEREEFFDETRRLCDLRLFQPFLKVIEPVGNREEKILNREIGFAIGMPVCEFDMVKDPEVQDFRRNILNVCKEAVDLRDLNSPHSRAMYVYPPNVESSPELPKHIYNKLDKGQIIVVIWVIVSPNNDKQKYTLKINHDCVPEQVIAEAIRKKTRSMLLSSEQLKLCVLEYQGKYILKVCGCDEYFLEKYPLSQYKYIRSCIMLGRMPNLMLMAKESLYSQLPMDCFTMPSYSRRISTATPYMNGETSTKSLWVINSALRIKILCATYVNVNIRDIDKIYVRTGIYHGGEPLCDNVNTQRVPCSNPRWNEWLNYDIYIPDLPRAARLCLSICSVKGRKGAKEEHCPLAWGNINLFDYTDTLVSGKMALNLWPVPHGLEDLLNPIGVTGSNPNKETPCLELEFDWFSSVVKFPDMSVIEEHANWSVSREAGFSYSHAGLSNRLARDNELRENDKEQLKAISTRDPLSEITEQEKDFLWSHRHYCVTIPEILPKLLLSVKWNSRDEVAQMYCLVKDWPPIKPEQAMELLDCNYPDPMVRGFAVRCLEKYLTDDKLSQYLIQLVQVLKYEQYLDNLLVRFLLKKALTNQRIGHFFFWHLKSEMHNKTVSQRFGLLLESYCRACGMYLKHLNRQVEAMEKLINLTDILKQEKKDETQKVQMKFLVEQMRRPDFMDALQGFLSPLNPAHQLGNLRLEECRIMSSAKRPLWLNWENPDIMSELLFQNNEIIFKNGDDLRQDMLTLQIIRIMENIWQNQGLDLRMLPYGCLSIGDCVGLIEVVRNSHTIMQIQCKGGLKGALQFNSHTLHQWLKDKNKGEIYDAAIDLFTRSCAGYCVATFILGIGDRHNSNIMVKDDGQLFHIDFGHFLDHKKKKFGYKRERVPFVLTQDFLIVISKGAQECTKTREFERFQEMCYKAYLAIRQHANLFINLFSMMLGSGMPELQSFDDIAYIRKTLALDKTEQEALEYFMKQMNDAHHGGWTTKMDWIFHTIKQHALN
T1 sequence (P27986 whole entry partner, the tested form may be a part, canonical isoform): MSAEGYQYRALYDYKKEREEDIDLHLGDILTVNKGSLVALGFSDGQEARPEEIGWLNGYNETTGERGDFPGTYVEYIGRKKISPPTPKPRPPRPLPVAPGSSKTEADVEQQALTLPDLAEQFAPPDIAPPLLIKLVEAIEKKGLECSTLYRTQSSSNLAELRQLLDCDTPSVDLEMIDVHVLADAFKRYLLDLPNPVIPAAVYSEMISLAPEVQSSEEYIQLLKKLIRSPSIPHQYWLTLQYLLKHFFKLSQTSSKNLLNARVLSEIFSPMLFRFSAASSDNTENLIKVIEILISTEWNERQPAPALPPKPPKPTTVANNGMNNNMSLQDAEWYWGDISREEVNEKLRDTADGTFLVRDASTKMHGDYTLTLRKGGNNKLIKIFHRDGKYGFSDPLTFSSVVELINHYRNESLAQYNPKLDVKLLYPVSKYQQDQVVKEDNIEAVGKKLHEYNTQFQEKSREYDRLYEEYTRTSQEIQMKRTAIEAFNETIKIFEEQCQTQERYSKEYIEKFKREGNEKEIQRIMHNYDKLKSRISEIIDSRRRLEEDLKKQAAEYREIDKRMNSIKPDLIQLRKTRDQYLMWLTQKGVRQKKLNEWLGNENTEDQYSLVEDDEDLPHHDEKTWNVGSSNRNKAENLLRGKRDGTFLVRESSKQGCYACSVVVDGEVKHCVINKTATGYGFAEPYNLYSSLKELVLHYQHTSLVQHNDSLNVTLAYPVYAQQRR

Structure (SMILES)	IC50 [1] [µM]	IC50 [2] [µM]
NCC(=O)N1CC=C(c2cc(N3CCOCC3)nc(-n3c(C(F)F)nc4ccccc43)n2)CC1 [Example 1, 2-(2-difluoromethylbenzimidazol-1-yl)-4-(N-glycyl-1,2,3,6-tetrahydropyridin-4-yl)-6-morpholinopyrimidine]	~0.1	~0.1
NCC(=O)N1CCC(c2cc(N3CCOCC3)nc(-n3c(C(F)F)nc4ccccc43)n2)CC1 [Example 2, 2-(2-difluoromethylbenzimidazol-1-yl)-4-(N-glycylpiperidin-4-yl)-6-morpholinopyrimidine]	~0.3	~0.1
